Measured values from patent publication US20180077929A1, “METHODS AND SYSTEMS FOR TREATING MEDICAL DEVICES AND FLUIDS” (priority 2016, published 2018).
“And” between values parts separate entries of the source, which are not always exact repeats. Identical values can stand only once.

What was measured:
[1] = Effect of storage (dwell time) on efficacy of pre-mixed CaSt suspensions; assay type: biochemical; conditions: 15 minutes
Experimental: Efficacy of pre-mixed CaSt suspensions (sonicated and vortexed) was tested, comparing efficacy of immediately prepared suspensions with suspensions having shelf life or dwell time of 90 min, 5 days, and 1 month prior to contact with endotoxin containing solutions.
10 mL SRW was then introduced to the sonicated CaSt mixture. It was then vortexed for 5 seconds to fully incorporate the sonicated CaSt. The mixture was then tested after 15 minutes of interaction to measure the percent decrease of endotoxin.
10 mL SRW was then introduced to the vortexed CaSt mixture. It was then vortexed for 5 seconds to fully incorporate the sonicated CaSt. The mixture was then tested after 15 minutes of interaction to measure the percent decrease of endotoxin.
These mixtures were then tested on the Charles River MCS at a dilution of 1:2000 after 15 minutes of interaction.
Test samples were prepared as described above, sonicated and vortexed, but were subjected to shelf life or dwell time of 90 min, 5 days, and 1 month prior to contact with endotoxin containing solution (SRW). After dwell time exposure, similarly to the immediate mixing test above, 10 mL SRW was then introduced to the sonicated or vortexed CaSt mixture. It was then vortexed for 5 seconds to fully incorporate the sonicated CaSt. The mixture was then tested after 15 minutes of interaction to measure the percent decrease of endotoxin. These mixtures were then tested on the Charles River MCS at a dilution of 1:2000 after 15 minutes of interaction.
*The 1 month shelf life sample was only tested at 0.04 g CaSt and measured the percent removal after 15 minutes of interaction as well as 30 minutes after interaction.

[2] = Detection of LPS after adding CaSt powder to water spiked with LPS (Kinetic Chromogenic Method, Endosafe MCS); assay type: biochemical
Experimental: Water and aqueous solutions (containing LPS with various sources of endotoxin) were exposed to calcium stearate [CaSt] […] 5 mL of water solution of known endotoxin concentration (generated by spiking endotoxin-free water with water solution of known endotoxin concentration) was added to the each test tube, vortexed vigorously (1 minute) using Fisher Scientific Digital Vortex Mixer, and then placed in a warm water bath (37° C.) for 1 hour. After 1 hour, the tubes were removed from warm water bath and vortexed vigorously (1 minute). Sterile syringes with needles were used to extract the solution without removing the calcium stearate. This solution was then tested for endotoxin levels. Kinetic Chromogenic Method for Endotoxin Quantitation, using Endosafe MCS Multi Cartridge System by Charles River Laboratories, Charleston S.C.
The total LPS added to test tubes was about 5 EU, with the detected LPS after the treatment was 3% to 8% of the initial concentration.
The total LPS added to test tubes was about 14400 EU, with the detected LPS after the treatment was 0.07%-0.08% of the initial concentration.
The total LPS added to test tubes was about 14400 EU, with the detected LPS after the treatment was CaSt dependent and was a function of the amount of CaSt added. CaSt addition ranged about 100 fold from 0.0027 g to 0.25 g, with the detected LPS after the treatment was ranging from 77% to 0.19% of respectively as a percent of the initial concentration. […] In summary, there are three factors that drive the stearates performance to remove/neutralize endotoxins. These three factors, not necessarily listed in order of importance, are concentration, time of exposure, and energy in solution at the micro level.

[3] = 0.02 g CaSt, Sonicated, 5 Day dwell time
[4] = 0.02 g CaSt, Sonicated, 90 min dwell time
[5] = 0.02 g CaSt, Sonicated, Immediate Mixing
[6] = 0.02 g CaSt, Vortexed, 5 Day dwell time
[7] = 0.02 g CaSt, Vortexed, 90 min dwell time
[8] = 0.04 g CaSt, Sonicated, 1 Month dwell time
[9] = 0.04 g CaSt, Sonicated, 5 Days dwell time
[10] = 0.04 g CaSt, Sonicated, 90 min dwell time
[11] = 0.04 g CaSt, Sonicated, Immediate Mixing
[12] = 0.04 g CaSt, Vortexed, 5 Days dwell time
[13] = 0.04 g CaSt, Vortexed, 90 min dwell time
[14] = 0.04 g CaSt, Vortexed, Immediate Mixing
[15] = 0.0027 g CaSt in 5 mL water, 14,400 EU spiked
[16] = 0.0108 g CaSt in 5 mL water, 14,400 EU spiked
[17] = 0.0518 g CaSt in 5 mL water, 14,400 EU spiked
[18] = 0.2502 g CaSt in 5 mL water, 14,400 EU spiked
[19] = 0.254-0.2607 g CaSt powder in 5 mL water, 14,400 EU spiked, 0.254 g CaSt powder added
[20] = 0.254-0.2607 g CaSt powder in 5 mL water, 14,400 EU spiked, 0.2607 g CaSt powder added

Question: Which results are given for Calcium Stearate?
Answer: EU After ([1]; 0.02 g CaSt in 10 mL LRW, Sonicated, Immediate Mixing with 10 mL SRW, 36,100 EU before): 8,960 EU and 10,240 EU; Average Percent Change [1, 3]: 76%; Percent Endotoxin Removed [1, 3]: 76%; EU After ([1]; 0.02 g CaSt, Sonicated, 5 Day dwell time, 37,800 EU before): 9,200 EU; Average Percent Change [1, 4]: 61%; Percent Endotoxin Removed [1, 4]: 58% and 64%; EU After ([1]; 0.02 g CaSt, Sonicated, 90 min dwell time, 36,100 EU before): 15,120 EU and 12,960 EU; Average Percent Change [1, 5]: 74%; Percent Endotoxin Removed [1, 5]: 75% and 72%; Average Percent Change [1, 6]: 64%; Percent Endotoxin Removed [1, 6]: 60% and 68%; EU After ([1]; 0.02 g CaSt, Vortexed, 5 Day dwell time, 37,800 EU before): 15,120 EU and 12,160 EU; Average Percent Change [1, 7]: 43%; Percent Endotoxin Removed [1, 7]: 38% and 47%; EU After ([1]; 0.02 g CaSt, Vortexed, 90 min dwell time, 36,100 EU before): 22,400 EU and 19,280 EU; Average Percent Change ([1]; 0.02 g CaSt, Vortexed, Immediate Mixing): 32%; EU After ([1]; 0.02 g CaSt, Vortexed, Immediate Mixing, 36,100 EU before): 29,200 EU and 20,480 EU; EU After ([1]; 0.04 g CaSt in 10 mL LRW, Sonicated, Immediate Mixing with 10 mL SRW, 36,100 EU before): 5,320 EU and 5,800 EU; Average Percent Change [1, 8]: 50%; Percent Endotoxin Removed [1, 8]: 49.2% and 50.6%; Average Percent Change [1, 9]: 85%; Percent Endotoxin Removed [1, 9]: 87% and 83%; Average Percent Change [1, 10]: 81%; Percent Endotoxin Removed [1, 10]: 83% and 78%; Average Percent Change [1, 11]: 85%; Percent Endotoxin Removed [1, 11]: 85% and 84%; EU After ([1]; 0.04 g CaSt, Sonicated, Mixing after 1 Month dwell time, 14,650 EU before): 7,440 EU and 7,240 EU; EU After ([1]; 0.04 g CaSt, Sonicated, Mixing after 5 Days dwell time, 37,800 EU before): 5,040 EU and 6,560 EU; EU After ([1]; 0.04 g CaSt, Sonicated, Mixing after 90 min dwell time, 36,100 EU before): 6,168 EU and 8,000 EU; Average Percent Change [1, 12]: 75%; Percent Endotoxin Removed [1, 12]: 76% and 74%; Average Percent Change [1, 13]: 54%; Percent Endotoxin Removed [1, 13]: 53% and 54%; Average Percent Change [1, 14]: 44%; Percent Endotoxin Removed [1, 14]: 45% and 43%; EU After ([1]; 0.04 g CaSt, Vortexed, Immediate Mixing, 36,100 EU before): 19,840 EU and 20,480 EU; EU After ([1]; 0.04 g CaSt, Vortexed, Mixing after 5 Days dwell time, 37,800 EU before): 9,080 EU and 9,760 EU; EU After ([1]; 0.04 g CaSt, Vortexed, Mixing after 90 min dwell time, 36,100 EU before): 17,120 EU and 16,460 EU; Endotoxin Detected [2, 15]: 11,055 EU; Percent of detected Endotoxin vs. initial concentration [2, 15]: 77% and 76.77%; Endotoxin Detected [2, 16]: 2,925 EU; Percent of detected Endotoxin vs. initial concentration [2, 16]: 20% and 20.31%; Endotoxin Detected [2, 17]: 9.4 EU; Percent of detected Endotoxin vs. initial concentration [2, 17]: 0.07%; Endotoxin Detected [2, 18]: 26.7 EU; Percent of detected Endotoxin vs. initial concentration [2, 18]: 0.19%; Percent of detected Endotoxin vs. initial concentration ([2]; 0.252-0.272 g CaSt powder in 5 mL water, 5.208 EU spiked, 37° C. 1 hour, 0.252 g CaSt powder added): <2.88%; Percent of detected Endotoxin vs. initial concentration ([2]; 0.252-0.272 g CaSt powder in 5 mL water, 5.208 EU spiked, 37° C. 1 hour, 0.258 g CaSt powder added): <8.06%; Percent of detected Endotoxin vs. initial concentration ([2]; 0.252-0.272 g CaSt powder in 5 mL water, 5.208 EU spiked, 37° C. 1 hour, 0.267 g CaSt powder added): <3.46%; Endotoxin Detected [2, 19]: 12.1 EU; Percent of detected Endotoxin vs. initial concentration [2, 19]: 0.08%; Endotoxin Detected [2, 20]: 10.3 EU; Percent of detected Endotoxin vs. initial concentration [2, 20]: 0.07%
